This series is described as follows: TULIP Phase II trial, plasma concentrations of obicetrapib. In kind it is in vivo, humans. The conditions noted are these: for % Change in Plasma Level: Week 20 vs EOT, mean (SD); for concentration at 12 weeks / concentration at 20 weeks: both sexes, human, plasma, oral, read-out: Mean (SD) Plasma Level; for concentration at 12 weeks: Week 12 (EOT). The protocol:
The PK parameters and the effect of food on the bioavailability of obicetrapib in humans have been examined in both Phase I[9] (TA‐8995‐09 CSR, NewAmsterdam Pharma) and Phase II trials.[10], [11], [12], [13] The trials were performed in accordance with the Declaration of Helsinki, Good Clinical Practice Guidelines, and applicable regulatory requirements. Approval was obtained from the relevant ethical review boards for each site. All volunteers provided written informed consent prior to participation. PK parameters were determined using WinNonlin software, version 4.1 or higher (Pharsight/Certara Corporation, USA). Concentrations of obicetrapib were summarized for each treatment group using descriptive statistics.
TULIP (NCT01970215) was a placebo‐controlled, double‐blind, randomized parallel‐group trial conducted to evaluate the effects of varying doses of obicetrapib as monotherapy and in combination with moderate‐intensity statin therapy on LDL‐C and HDL‐C levels.[10]
Additionally, the plasma concentrations of obicetrapib were evaluated during and after the treatment period. Eligible participants had mild dyslipidemia defined as LDL‐C levels between 96–174 mg/dL, HDL‐C levels between 31 and 70 mg/dL, and triglyceride levels <400 mg/dL after a washout for those on lipid‐modifying therapies. Three hundred and sixty‐four participants (mean age: 64.7 years; 81.6% male; 98.1% White; mean body mass index [BMI]: 26.0 kg/m^2) were enrolled at 17 clinical research sites in the Netherlands and Denmark and randomized in a […] ratio to one of nine treatment groups: (1) placebo; (2) 1 mg obicetrapib; (3) 2.5 mg obicetrapib; (4) 5 mg obicetrapib; (5) 10 mg obicetrapib; (6) 10 mg atorvastatin; (7) 10 mg obicetrapib plus 20 mg atorvastatin; (8) 10 mg rosuvastatin; or (9) 10 mg obicetrapib plus 10 mg rosuvastatin. The participants were instructed to take their assigned treatment orally with food once daily for the 12‐week treatment period. After randomization, participants returned to the clinical research site for PK assessments at Weeks 8 and 12 (end of treatment). Participants also completed follow‐up visits two and eight weeks after the end of treatment (Weeks 14 and 20) for final safety and PK assessments. Of the 364 participants randomized, 337 (92.6%) completed the trial and were included in the primary analysis. The PK population (n = 242) included all randomized participants who received at least one dose of obicetrapib and had at least one valid plasma drug concentration data assessment; 227 (93.8%) of the participants in the PK population were included in the 8‐week post‐end of treatment PK analysis (TA‐8995‐03 CSR, NewAmsterdam Pharma).

Setting [1] is: Obicetrapib 10 mg + atorvastatin 20 mg.
Where [2] appears, read: Obicetrapib 10 mg + rosuvastatin 10 mg.

Where two headings read alike, the source gives them in different places.

As for `CCOC(=O)N1c2ccc(C(F)(F)F)cc2C(N(Cc2cc(C(F)(F)F)cc(C(F)(F)F)c2)c2ncc(OCCCC(=O)O)cn2)CC1CC` (stereo not shown) [Obicetrapib], the “% Change in Plasma Level” value was −97.8 (0.8) % (Obicetrapib 5 mg), −97.4 (1.0) % under setting [1], −97.3 (1.3) % under setting [2] and −97.7 (0.7) % (Obicetrapib 10 mg). In addition, where the note is “Obicetrapib 10 mg + atorvastatin 20 mg, Week 20, eight weeks after the end of treatment”, the “Mean (SD) Plasma Level” value is 10.8 (5.9) ng/mL. Besides, the concentration at 12 weeks runs as follows: (5 mg, Obicetrapib 5 mg once daily) 258 ng/mL; (10 mg, Obicetrapib 10 mg once daily) 408 ng/mL; under setting [1], 404 ng/mL; under setting [2], 402 ng/mL. The concentration at 20 weeks runs as follows: (5 mg, Obicetrapib 5 mg, Week 20, eight weeks after the end of treatment) 5.9 ng/mL; (10 mg, Obicetrapib 10 mg, Week 20, eight weeks after the end of treatment) 9.8 ng/mL; (Obicetrapib 10 mg + rosuvastatin 10 mg, Week 20, eight weeks after the end of treatment) 11.3 ng/mL. Also, the “decrease of plasma levels” value (eight weeks after the last dose (Week 20), all treatment groups) is on record as “approximately 97%”.
